Data as given in patent publication US20220282217A1, “COMPOSITIONS AND METHODS FOR PREPARING T CELL COMPOSITIONS AND USES THEREOF” (priority 2019, published 2022).
pIC50: −log10 of the molar value. Like-named read-outs stand apart in the source and are kept apart here. Values belong to the molecule of their own block, whether it stands above or below them. Where a SMILES comes first, the peptide text is derived from it.

How the values were obtained:
[1] = target: T1, HLA-A02.01 (Homo sapiens, UniProt P04439, D140Y/D185E/D98H/E176V/E277Q/G131W/G231S/I119V/I121R/I166T/I218V/N151K/N90K/P208A/P217A/Q86G/Q94H/R138H/R169H); assay: Class I MHC peptide binding stability (pMHC-I dissociation, 125I-labeled light chain); settings: allele A02.01
T1 construct: made in house; host or cells: E. coli

[2] = target: T2, HLA-B08.01 (Homo sapiens, UniProt P01889, A93T/A95T/D138N/E176V/E187T/K202T/Q94N/R180D/S35A/V36M/Y33D/Y91F); assay: as above; settings: Allele B08.01
[3] = target: T3, HLA-A03.01 (Homo sapiens, UniProt P04439); assay: Class I MHC peptide binding affinity (displacement of radiolabeled reference peptide); settings: for IC50: allele A03.01, read-out: Observed Affinity (IC50, (nM))
[4] = target: T4, HLA-A01.01 (Homo sapiens, UniProt P04439, A114D/A174V/A182V/D101N/E190D/Q94H/R68K/S129P/V100A/V91M/W191G); assay: Class I MHC peptide binding stability (pMHC-I dissociation, 125I-labeled light chain); settings: BTK C481S peptide; HLA Allele A01.01
T4 construct: made in house; host or cells: E. coli

[5] = target: HLA-A11.01 (Homo sapiens, UniProt P04439, A114D/D185E/E176A/F33Y/L180Q/S129P/T187R); assay: Class I MHC peptide binding affinity (displacement of radiolabeled reference peptide); settings: for IC50: allele A11.01, read-out: Observed Affinity (IC50, (nM))
[6] = target: T3, HLA-A03.01; assay: Class I MHC peptide binding stability (pMHC-I dissociation, 125I-labeled light chain); set-up: made in house; host or cells: E. coli
[7] = target: HLA-A01.01 (Homo sapiens, UniProt P04439, A114D/A174V/A182V/D101N/D185E/E176A/E190D/L180R/Q94H/R68K/S129P/T187R/V100A/V91M/W191G); assay: Class I MHC peptide binding affinity (displacement of radiolabeled reference peptide)
In short: (§1)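 Read-out: radioactivity of reference peptide retained on MHCI, separated from free label by gel-filtration size exclusion. Competing peptides are titrated against the preformed complexes and incubated two days beforehand.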

[8] = target: HLA-A02.01 (Homo sapiens, UniProt P04439, D140Y/D185E/D98H/E176V/E277Q/G131W/G231S/I119V/I121R/I166T/I218V/L300P/L318F/N151K/N90K/P208A/P217A/Q86G/Q94H/R138H/R169H/T345S); assay: as above; settings: allele A02.01, (nM))
In short: as §1

[9] = target: T5, HLA-B07.02 (Homo sapiens, UniProt P01889); assay: as above
[10] = target: T2, HLA-B08.01; assay: as above
In short: as §1

[11] = target: T5, HLA-B07.02; assay: Class I MHC peptide binding stability (pMHC-I dissociation, 125I-labeled light chain); set-up: made in house; host or cells: E. coli; settings: Allele B07.02
[12] = read-out: Observed Affinity (IC50

SMILES: CC(C)C[C@H](NC(=O)[C@@H]1CCCN1C(=O)[C@H](CS)NC(=O)[C@H](CC(C)C)NC(=O)[C@H](Cc1c[nH]cn1)NC(=O)[C@H](CC(N)=O)NC(=O)CNC(=O)[C@H](CC(C)C)NC(=O)[C@@H](N)CO)C(=O)O
Stability (T1/2 (h)) [1]: 3.5 h | Stability (T1/2 (h)) [2]: 0.5 h

SMILES: CSCC[C@H](NC(=O)[C@@H](N)Cc1ccc(O)cc1)C(=O)N[C@@H](C)C(=O)N[C@@H](CC(N)=O)C(=O)NCC(=O)N[C@@H](CO)C(=O)N[C@@H](CC(C)C)C(=O)N[C@@H](CC(C)C)C(=O)N[C@@H](CC(N)=O)C(=O)N[C@@H](Cc1ccc(O)cc1)C(=O)O (H-YMANGSLLNY-OH; N-terminus and C-terminus assumed)
pIC50 ([3]; BTK C481S peptide, HLA Allele A03.01, read-out: Affinity): 7.02 | IC50 [3]: 95.9 nM | Stability (half-life (hr.)) [4]: 0.8662 h | pIC50 ([5]; BTK C481S peptide, HLA Allele A11.01, read-out: Affinity): 6.01 | Stability (half-life (hr.)) ([6]; BTK C481S peptide, HLA Allele A03.01): 0.2791 h | pIC50 ([7]; BTK C481S peptide, HLA Allele A01.01, read-out: Affinity): 7.88 | IC50 ([7]; allele A01.01, read-out: Observed Affinity (IC50, (nM))): 13.2 nM

IC50 [3]: 15.7 nM | IC50 [5]: 15.8 nM
SMILES: CSCC[C@H](NC(=O)[C@H](C)NC(=O)[C@@H](N)CO)C(=O)N[C@H](C(=O)N[C@H](C(=O)N[C@@H](CO)C(=O)N[C@@H](CO)C(=O)N[C@@H](CO)C(=O)N[C@@H](CCC(N)=O)C(=O)N[C@@H](CCCCN)C(=O)O)[C@@H](C)O)[C@@H](C)O (H-SAMTTSSSQK-OH; N-terminus and C-terminus assumed)

IC50 [3]: 308 nM | Stability (T1/2 (h)) [1]: 14.3 h | Stability (T1/2 (h)) ([6]; allele A03.01): 0.8 h | IC50 [8, 12]: 6 nM
SMILES: CC(C)C[C@H](NC(=O)[C@H](Cc1ccccc1)NC(=O)[C@H](CO)NC(=O)[C@H](CC(C)C)NC(=O)[C@H](CS)NC(=O)[C@H](CO)NC(=O)[C@H](Cc1ccccc1)NC(=O)[C@H](CC(C)C)NC(=O)[C@@H](N)CCCCN)C(=O)O (H-KLFSCLSFL-OH; N-terminus and C-terminus assumed)

IC50 [3]: 4.4 nM | IC50 [5]: 129 nM
SMILES: CC(C)C[C@H](NC(=O)[C@H](C)NC(=O)[C@@H]1CCCN1C(=O)[C@@H](NC(=O)[C@H](CCCCN)NC(=O)[C@H](CCCCN)NC(=O)[C@H](CC(C)C)NC(=O)[C@@H](N)CO)C(C)C)C(=O)N[C@@H](CCCCN)C(=O)O (H-SLKKVPALK-OH; N-terminus and C-terminus assumed)

SMILES: CSCC[C@H](NC(=O)[C@@H](NC(=O)[C@H](Cc1ccc(O)cc1)NC(=O)[C@H](C)NC(=O)[C@H](CCSC)NC(=O)[C@@H](NC(=O)[C@@H](N)Cc1ccc(O)cc1)C(C)C)C(C)C)C(=O)N[C@@H](C)C(=O)NCC(=O)O
Stability (T1/2 (h)) [1]: 2.5 h | Stability (T1/2 (h)) [2]: 1.2 h | IC50 [8, 12]: 11500 nM

SMILES: CC[C@H](C)[C@H](NC(=O)[C@H](Cc1ccc(O)cc1)NC(=O)[C@H](CCCCN)NC(=O)CNC(=O)[C@H](CCCNC(=N)N)NC(=O)[C@H](CCCCN)NC(=O)[C@H](Cc1c[nH]cn1)NC(=O)[C@H](CC(C)C)NC(=O)[C@@H](N)Cc1c[nH]c2ccccc12)C(=O)O (H-WLHKRGKYI-OH; N-terminus and C-terminus assumed)
Stability (T1/2 (h)) [1]: 1.2 h | pIC50 [9]: 5.58 | Stability (T1/2 (h)) [2]: 1.3 h | pIC50 [10]: 6.38 | IC50 ([8]; Observed Affinity (IC50): 1250 nM

SMILES: CSCC[C@H](NC(=O)[C@H](Cc1c[nH]c2ccccc12)NC(=O)[C@H](Cc1c[nH]cn1)NC(=O)[C@H](CC(N)=O)NC(=O)[C@H](CCCNC(=N)N)NC(=O)[C@H](CCCNC(=N)N)NC(=O)[C@H](CCC(N)=O)NC(=O)[C@H](CO)NC(=O)[C@@H]1CCCN1C(=O)[C@@H](N)CC(C)C)C(=O)O
Stability (T1/2 (h)) [11]: 6.5 h | Stability (T1/2 (h)) [2]: 0.7 h
